This test deals with ADP-induced aggregation of platelets in human PRP. As to the kind of experiment: animal or person. The settings on record: Platelet, po, read-out: ID50 (dose administered orally that inhibits by 50% the ADP-induced ex vivo aggregation of platelets in human PRP).
Turning to `CCOC(=O)N=C(N)c1ccc(C(=O)N[C@@H](Cc2ccc(OC(=O)OCC)cc2)C(=O)N2CCC(OCC(=O)OC(C)C)CC2)cc1` (mixture of isomers) [Example 49, Isopropyl (E/Z)-(S)-1-[2-[4-(amino-ethoxycarbonylimino-methyl)-benzoylamino]-3-(4-ethoxycarbonyloxy-phenyl)-propionyl]-piperidin-4-yloxyacetate], the ED50 worked out at 1.2 mg/kg.
Then `CCOC(=O)N=C(N)c1ccc(C(=O)N[C@@H](Cc2ccc(OC(=O)c3ccccc3N)cc2)C(=O)N2CCC(OCC(=O)OC(C)C)CC2)cc1` (mixture of isomers) [Example 50, (E/Z)-(S)-4-[2-[4-(amino-ethoxycarbonylimino-methyl)-benzoylamino]-3-(4-isopropoxy-carbonylmethoxy-piperidin-1-yl)-3-oxo-propyl]-phenyl 2-amino-benzoate], with 1.3 mg/kg; and `CCOC(=O)N=C(N)c1ccc(C(=O)N[C@@H](Cc2ccc(OC(=O)c3ccco3)cc2)C(=O)N2CCC(OCC(=O)OC(C)C)CC2)cc1` (mixture of isomers) [Example 51, (E/Z)-(S)-4-[2-[4-(amino-ethoxycarbonylimino-methyl)-benzoylamino]-3-(4-isopropoxy-carbonylmethoxy-piperidin-1-yl)-3-oxo-propyl]-phenyl furan-2-carboxylate], with 3.9 mg/kg.
As for `CCOC(=O)N=C(N)c1ccc(C(=O)N[C@@H](Cc2ccc(OC(=O)c3ccccc3OC(C)=O)cc2)C(=O)N2CCC(OCC(=O)OC(C)C)CC2)cc1` (mixture of isomers) [Example 53, (E/Z)-(S)-4-[2-[4-(amino-ethoxycarbonylimino-methyl)-benzoylamino]-3-(4-isopropoxy-carbonylmethoxy-piperidin-1-yl)-3-oxo-propyl]-phenyl 2-acetoxy-benzoate], the figure is 1.5 mg/kg; as for `CCOC(=O)N=C(N)c1ccc(C(=O)N[C@@H](C)C(=O)N2CCC(OCC(=O)OC(C)C)CC2)cc1` (mixture of isomers) [Example 60, isopropyl (E/Z)-(S)-1-[2-[4-(amino-ethoxycarbonylimino-methyl)-benzoylamino]-propionyl]-piperidin-4-yloxyacetate], 0.3 mg/kg; as for `CC(C)OC(=O)COC1CCN(C(=O)[C@H](C)NC(=O)c2ccc(C(N)=NO)cc2)CC1` (mixture of isomers) [Example 76, isopropyl (E/Z)-(S)-1-[2-[4-(amino-hydroxyimino-methyl)-benzoylamino]-propionyl]-piperidin-4-yloxyacetate], 0.2 mg/kg.
As for `CCOC(=O)COc1ccc(C(=O)C(CSC)NC(=O)c2ccc(C(=N)NC(=O)OCC)cc2)cc1` (racemic) [Example 27, ethyl (R,S)-4-[2-[4-(ethoxycarbonylamino-imino-methyl)-benzoylamino]-3-methylsulphanyl-propionyl]-phenoxyacetate], the figure is 4.3 mg/kg.
On to `CCOC(=O)COc1ccc(C(=O)C(C)NC(=O)c2ccc(C(N)=NO)cc2)cc1` (racemic) [Example 32, ethyl (Z)-(R,S)-4-[2-[4-[amino-hydroxyimino-methyl]-benzoylamino]-propionyl]-phenoxyacetate], for which the ED50 was determined as 0.2 mg/kg.
As for `CCOC(=O)COc1ccc(C(=O)C(C)NC(=O)c2ccc(C(N)=NOC(=O)OCC)cc2)cc1` (racemic) [Example 35, ethyl (Z)-(R,S)-4-[2-[4-[amino-ethoxycarbonyloximino-methyl]-benzoylamino]-propionyl]-phenoxyacetate], the figure is 0.5 mg/kg; as for `CC(C)COC(=O)NC(=N)c1ccc(C(=O)CC(C)C(=O)N2CCC(OCC(=O)OC(C)C)CC2)cc1` (racemic) [Example 85, isopropyl (RS)-[1-[4-[4-(Isobutoxycarbonylamino-imino-methyl)-phenyl]-2-methyl-4-oxo-butyryl]-piperidin-4-yloxy]-acetate], 0.4 mg/kg; as for `C[C@H](NC(=O)c1ccc(C(=N)N)cc1)C(=O)c1ccc(OCC(=O)OCC2CC2)cc1` [Example 3, cyclopropylmethyl (S)-4-[2-[4-(amino-imino-methyl)-benzoylamino]-propionyl]-phenoxyacetate], 2.7 mg/kg.
As for `C[C@H](NC(=O)c1ccc(C(=N)N)cc1)C(=O)c1ccc(OCC(=O)OC2CCCCC2)cc1` [Example 4, cyclohexyl (S)-4-[2-[4-(amino-imino-methyl)-benzoylamino]-propionyl]-phenoxyacetate], the figure is 2.1 mg/kg.
Turning to `CCOC(=O)COc1ccc(C(=O)[C@H](CO)NC(=O)c2ccc(C(=N)N)cc2)cc1` [Example 9, ethyl (S)-4-[2-[4-(amino-imino-methyl)-benzoylamino]-3-hydroxy-propionyl]-phenoxyacetate], the ED50 is 1.4 mg/kg.
As for `COc1ccc(C[C@H](NC(=O)c2ccc(C(=N)N)cc2)C(=O)c2ccc(OCC(=O)O)cc2)cc1` [Example 11, (S)-4-[2-[4-(amino-imino-methyl)-benzoylamino]-3-(4-methoxy-phenyl)-propionyl]-phenoxyacetic acid], the figure is 3.1 mg/kg; as for `CCOC(=O)COc1ccc(C(=O)[C@@H](NC(=O)c2ccc(C(=N)N)cc2)[C@@H](C)O)cc1` [Example 20, ethyl (2S,3R)-4-[2-[4-(amino-imino-methyl)-benzoylamino]-3-hydroxy-butyryl]-phenoxyacetate], 2.4 mg/kg.
Then `COCCOC(=O)COc1ccc(C(=O)[C@H](C)NC(=O)c2ccc(C(=N)N)cc2)cc1` [Example 22, 2-methoxy-ethyl (S)-4-[2-[4-(amino-imino-methyl)-benzoylamino]-propionyl]-phenoxyacetate], with 1.8 mg/kg; and `CCOC(=O)COc1ccc(C(=O)[C@H](COC(C)=O)NC(=O)c2ccc(C(=N)N)cc2)cc1` [Example 24, ethyl (S)-4-[2-[4-(amino-imino-methyl)-benzoylamino]-3-acetoxy-propionyl]-phenoxy-acetate], with 2.3 mg/kg; and `CCOC(=O)COc1ccc(C(=O)[C@H](C)NC(=O)c2ccc(C(=N)NC(=O)OCCOC)cc2)cc1` [Example 28, ethyl (S)-4-[2-[4-[imino-2-(methoxy-ethoxycarbonylamino)-methyl]-benzoylamino]-propionyl]-phenoxyacetate], with 0.3 mg/kg.
Then `CCOC(=O)COc1ccc(C(=O)[C@H](C)NC(=O)COC2CCNCC2)cc1` [Example 29, ethyl (S)-4-(2-piperidin-4-yloxyacetylamino-propionyl)-phenoxyacetate], with 1 mg/kg; and `CCOC(=O)NC(=N)c1ccc(C(=O)N[C@@H](C)C(=O)c2ccc(OCC(=O)OC3CCOCC3)cc2)cc1` [Example 33, tetrahydropyran-4-yl (S)-4-[2-[4-(ethoxycarbonylamino-imino-methyl)-benzoylamino]-propionyl]-phenoxyacetate], with 0.6 mg/kg.
Turning to `CCOC(=O)COc1ccc(C(=O)[C@H](C)NC(=O)c2ccc(C(=N)NC(=O)Oc3ccccc3)cc2)cc1` [Example 36, ethyl (S)-4-[2-[4-(imino-phenoxycarbonylamino-methyl)-benzoylamino]-propionyl]-phenoxyacetate], the ED50 was found to be 0.5 mg/kg.
Then `CCOC(=O)COc1ccc(C(=O)[C@H](C)NC(=O)c2ccc(C(=N)NC(=O)OC3CCOCC3)cc2)cc1` [Example 38, ethyl (S)-4-[2-[4-[imino-(tetrahydro-pyran-4-yloxy-carbonylamino)-methyl]-benzoylamino]-propionyl]-phenoxyacetate], with 2.9 mg/kg; and `COCCOC(=O)COc1ccc(C(=O)[C@H](C)NC(=O)c2ccc(C(=N)NC(=O)OCCOC)cc2)cc1` [Example 40, 2-methoxy-ethyl (S)-^4-[2-[4-[imino-(2-methoxy-ethoxy-carbonylamino)-methyl]-benzoylamino]-propionyl]-phenoxyacetate], with 0.6 mg/kg.
Then `CCOC(=O)COc1ccc(C(=O)[C@H](C)NC(=O)c2ccc(/C(N)=N/O)cc2)cc1` [Example 41, ethyl (Z)-(S)-4-[2-[4-(amino-hydroxyimino-methyl)-benzoylamino]-propionyl]-phenoxyacetate], with 0.2 mg/kg; and `C[C@H](NC(=O)c1ccc(C(=N)N)cn1)C(=O)N1CCC(OCC(=O)OC2CCOCC2)CC1` [Example 63, tetrahydropyran-4-yl (S)-1-[2-(5-amino-imino-methyl-pyridin-2-ylcarbonylamino)-propionyl]-piperidin-4-yloxy-acetate], with 1.1 mg/kg; and `COc1ccc(C[C@H](NC(=O)c2ccc(CN)cn2)C(=O)N2CCC(OCC(=O)OC(C)C)CC2)cc1` [Example 72, isopropyl (S)-1-[2-(5-aminomethyl-pyridin-2-ylcarbonylamino)-3-(4-methoxy-phenyl)-propionyl]-piperidin-4-yloxyacetate], with 2.7 mg/kg.
As for `CCOC(=O)NC(=N)c1ccc(C(=O)CCC(=O)N2CCC(OCC(=O)OC(C)C)CC2)cc1` [Example 80, isopropyl [1-[4-[4-(ethoxycarbonylamino-imino-methyl)-phenyl]-4-oxo-butyryl]-piperidin-4-yloxy]-acetate], the figure is 0.7 mg/kg.

Values taken from patent US5973188A (priority 1993, dated 1999).
